In US5215999A, “Quinoline derivative and antiulcer agent containing said quinoline derivative” (Otsuka Pharmaceutical Co., Ltd., priority 1990, dated 1993):
Counter-ions that a name gives are not always drawn.

Tests used:
stomach-acid secretion = assay: Stomach-acid secretion inhibitory action on rats (histamine-stimulated, perfused stomach); type: in vivo, Wistar-type male rats; details: Rattus norvegicus, iv; 0.3, 1, 3, 10 and 30 mg/kg; histamine dihydrochloride 1 mg/kg/hr; probit method
Description: (a) Stomach-Acid Secretion Inhibitory Action on Rats
After each of Wistar-type male rats was let abstain from food for 24 hours, the pylorus thereof was bound while the rat was paralyzed with urethane (1.5 g/kg s.c.), and a stomach perfusion cannula was inserted into the rat stomach. The rat stomach was perfused with a physiological salt solution through an oral catheter. The amount of stomach-acid secretion was measured by titrating the total acidity and pH of the perfusion solution. As an acid secretion stimulant, 1 mg/kg/hr of histamine dihydrochloride was continuously injected through the femoral vein to accelerate the acid secretion. Then, the effects of a variety of compounds were studied.
Each of test compounds as dissolved in dimethylformamide was intravenously administered to the rat in each of dosages of 0.3, 1, 3, 10 and 30 mg/kg through […].
There was calculated an inhibition percentage of acid secretion with respect to acid secretion before administration of each of the test compounds. An ED50 value was calculated from the inhibition percentage with respect to each dosage according to a probit method.

H^+ +K^+ ATPase = target: T1, H^+ +K^+ ATPase (Sus scrofa, UniProt P19156); assay: H+ + K+ ATPase inhibitory action; type: biochemical; details: pig stomach enzyme, protein 10 μg; pH 7.4, 37° C., 30 minutes
T1 construct: prepared from the stomach of a pig; from tissue; host or cells: pig stomach
T1 sequence (P19156 2-1034 limits assumed): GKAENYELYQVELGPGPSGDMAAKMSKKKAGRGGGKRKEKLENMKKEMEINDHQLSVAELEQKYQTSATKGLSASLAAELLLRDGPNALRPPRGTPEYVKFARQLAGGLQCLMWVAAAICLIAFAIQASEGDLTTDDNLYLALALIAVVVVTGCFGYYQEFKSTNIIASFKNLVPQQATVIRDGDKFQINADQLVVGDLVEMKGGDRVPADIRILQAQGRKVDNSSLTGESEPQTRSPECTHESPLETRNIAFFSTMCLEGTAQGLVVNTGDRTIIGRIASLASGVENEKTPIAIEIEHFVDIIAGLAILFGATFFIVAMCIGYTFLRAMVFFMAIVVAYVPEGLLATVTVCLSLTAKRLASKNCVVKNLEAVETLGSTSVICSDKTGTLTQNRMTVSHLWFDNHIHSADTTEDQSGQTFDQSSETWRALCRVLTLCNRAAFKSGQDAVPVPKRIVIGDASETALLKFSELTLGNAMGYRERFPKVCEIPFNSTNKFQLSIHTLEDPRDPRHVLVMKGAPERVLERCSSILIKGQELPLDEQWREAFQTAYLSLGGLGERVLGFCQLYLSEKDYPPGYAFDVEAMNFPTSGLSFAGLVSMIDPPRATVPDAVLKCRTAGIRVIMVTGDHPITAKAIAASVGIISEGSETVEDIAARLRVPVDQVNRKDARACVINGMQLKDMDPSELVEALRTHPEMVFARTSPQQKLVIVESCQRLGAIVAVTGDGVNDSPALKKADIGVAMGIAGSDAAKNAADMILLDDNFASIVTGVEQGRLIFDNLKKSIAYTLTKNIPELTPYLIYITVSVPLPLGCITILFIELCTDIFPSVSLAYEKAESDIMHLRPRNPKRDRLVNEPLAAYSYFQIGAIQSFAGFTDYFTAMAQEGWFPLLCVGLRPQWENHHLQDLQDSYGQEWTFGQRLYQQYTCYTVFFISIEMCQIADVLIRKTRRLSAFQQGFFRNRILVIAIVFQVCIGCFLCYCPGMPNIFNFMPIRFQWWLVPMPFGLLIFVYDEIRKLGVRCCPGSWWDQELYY
T1 sequence (P18434 whole entry partner): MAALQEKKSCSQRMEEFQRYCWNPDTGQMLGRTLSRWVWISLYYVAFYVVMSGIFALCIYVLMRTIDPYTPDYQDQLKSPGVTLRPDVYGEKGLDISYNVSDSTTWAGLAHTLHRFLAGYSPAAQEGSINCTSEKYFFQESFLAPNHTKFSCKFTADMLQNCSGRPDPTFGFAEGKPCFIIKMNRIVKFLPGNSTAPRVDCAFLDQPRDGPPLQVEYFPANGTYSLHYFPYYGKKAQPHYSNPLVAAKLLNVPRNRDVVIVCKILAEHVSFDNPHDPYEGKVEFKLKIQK
Description: (c) H^+ +K^+ ATPase Inhibitory Action
H^+ +K^+ ATPase (adenosinetriphosphatase)(protein: 10 μg) prepared from the stomach of a pig was added to a pipes-Tris [2-amino-2-(hydroxymethyl)-1,3-propandiol] buffer (pipes-Tris buffer)(pH 8.1) containing 2 mM piperazine N,N'-bis(2-ethane sulfonic acid). The resultant reaction solution was allowed to stand at a room temperature. Each of the test compounds was dissolved in dimethyl formamide, which was added to the H^+ +K^+ ATPase buffer such that the final concentration was 1%. The resultant reaction solution was reacted at a room temperature for 30 minutes. In the same manner, another reaction solution was prepared. Respectively added to the reaction solutions were 1 ml of a 75 mM pipes-TRIS buffer (pH 7.4) (containing 4 mM MgCl2, 4 mM Na2 ATP and 20 mM KCl) and 1 ml of a 75 mM pipes-Tris buffer (pH7.4) (containing 4 mM MgCl2 and 4 mM Na2 ATP). Thus, two kinds of samples were prepared and reacted at 37° C. for 30 minutes. Added to each of the samples was 0.3 ml of 40% trichloroacetic acid, thus completing the reaction. After the samples were subjected to centrifugal separation (3,000 rpm) for 10 minutes. The supernatant liquids were taken to produce inorganic phosphoric acids, of which amounts were measured according to a Fiske and Subbarow method [J. Biol. Chem. vol. 86,375 (1925)]. The amount of the inorganic phosphoric acid obtained from the pipes-Tris buffer containing no 20 mM KCl was deducted from the amount of the inorganic phosphoric acid obtained from the pipes-Tris buffer containing 20 mM KCl. The difference expressed in terms of unit protein per unit time was defined as an enzyme active value. The inhibition value (%) of each dosage was obtained from the control value and the enzyme active value at each dosage. Based on the inhibition value thus obtained, IC50 (the dosage of each test compound which achieves inhibition of 50%) was obtained.

Row | IC50 (H^+ +K^+ ATPase) | Structure (SMILES) | ED50 (stomach-acid secretion)
1 | – | C=CCNC(=O)c1cnc2c(OC)cccc2c1Nc1ccccc1C.Cl [Test Compound 1, N-2-propenyl-8-methoxy-4-[(2-methylphenyl)amino]quinoline-3-carboxamide hydrochloride] | 6.72 mg/kg
2 | 2.2 µM | C=CCNC(=O)c1cnc2c(OC)cccc2c1Nc1ccccc1CC [Test Compound 2, N-2-propenyl-4-[(2-ethylphenyl)amino]-8-methoxyquinoline-3-carboxamide hydrochloride] | –
3 | 4.9 µM | C=CCNC(=O)c1cnc2c(OC)cccc2c1Nc1ccccc1C(C)C [Test Compound 3, N-2-propenyl-4-[(2-isopropylphenyl)amino]-8-methoxyquinoline-3-carboxamide hydrochloride] | –
4 | 1.6 µM | C=CCNC(=O)c1cnc2c(OC)cccc2c1Nc1ccccc1SCCC [Test Compound 5, N-2-propenyl-8-methoxy-4-[(2-propylthiophenyl)amino]quinoline-3-carboxamide hydrochloride] | –
